Marks after values point to notes of the source that are not given here.
Legend:
serum progesterone = test: Phase 1/2a study: serum progesterone; type: in vivo, human
Procedure: (§1) This is a Phase 1/2a, Open-label, Multicenter Study of Intramuscular Abiraterone Decanoate Depot in Patients with Advanced Prostate Cancer.
(§2) Formulations and dosing regimen: The formulation used in the study (abiraterone decanoate for intramuscular [i.m.] injection) is a solution formulation of abiraterone decanoate at a concentration of 180 mg/mL and will be provided as a 10 mL vial containing 990 mg of abiraterone decanoate in 5.5 mL of solution. See further details of the formulations in Example 2 (for each milliliter: Abiraterone Decanoate, about 180 mg/mL; Benzyl Alcohol, about 100 mg/mL; Benzyl Benzoate, about 200 mg/mL; and Corn oil, q.s. to 1 mL). Abiraterone Decanoate will be administered as an i.m. injection every 84 days (±3 days). Dose escalation will proceed with a modified Fibonacci sequence. Based on emerging data, intermediate doses may be evaluated.
(§3) Study Design: This is a Phase 1/2a, Open-label, Multicenter Study of Intramuscular Abiraterone Decanoate Depot in Patients with Advanced Prostate Cancer. In Phase 1, all patients will receive i.m. Abiraterone Decanoate depot in 84-day treatment cycles combined with daily oral prednisone or dexamethasone. In Phase 2a, patients will be randomized 1:1 and treated with i.m. Abiraterone Decanoate depot in 84-day treatment cycles in combination with dexamethasone (Arm A) or abiraterone acetate daily+prednisone (Arm B). In both Phases, patients will undergo scheduled periodic assessments of serum testosterone levels. Participants may continue treatment until they meet any discontinuation criteria outlined in the protocol.
(§4) Pharmacodynamic Analysis: Determination of Prostate Specific Antigen (PSA), serum testosterone, dehydroepiandrosterone (DHEA), dehydroepiandrosterone sulfate (DHEA-S), androstenedione, dihydrotestosterone (DHT), progesterone, cortisol, adrenocorticotropic hormone (ACTH), corticosterone, 11-dexoycorticosterone (11-DOC) and 11-deoxycortisol.
(§5) Based on the available data, the recommended dose for Phase 2 is about 1260 mg abiraterone decanoate once every three months (12 weeks). All cohorts 1 and 2 in this clinical study were treated with prednisone, 5 mg orally once or twice daily; and all cohorts 3-5 were treated with dexamethasone, 0.5 mg orally once daily. The results shown herein for these cohorts should be understood accordingly.
(§6) See also Table 3B below. […] See also FIG. 11B for the absolute serum progesterone levels for cohorts 4 and 5, with the LLOQ being 1.59 nM. It should be noted that the maximum serum progesterone level observed for cohorts 1-3 is 2.5 nM. FIGS. 3F and 3G show the serum 11-deoxycorticosterone and corticosterone response in cohorts 3, 4, and 5, the trend is similar to that observed for progesterone levels above. See a summary shown in the Table 3C below for the first cycle.

serum corticosterone = test: Phase 1/2a study: serum corticosterone; type: in vivo, human
Procedure: as §1, §2, §3, §4, §5, §6

## CCCCCCCCCC(=O)O[C@H]1CC[C@@]2(C)C(=CC[C@@H]3[C@@H]2CC[C@]2(C)C(c4cccnc4)=CC[C@@H]32)C1 [abiraterone decanoate]
Serum progesterone; 720 mg (N = 4), Day 14
  Progesterone Changes during cycle 1, Percent (%): −1%
Serum progesterone; 720 mg (N = 4), Day 28
  Progesterone Changes during cycle 1, Percent (%): −2%
Serum progesterone; 720 mg (N = 4), Day 56
  Progesterone Changes during cycle 1, Percent (%): 0%
Serum progesterone; 720 mg (N = 4), Day 84
  Progesterone Changes during cycle 1, Percent (%): 0%
Serum progesterone; 1,260 mg (N = 6), Day 14
  Progesterone Changes during cycle 1, Percent (%): 20%
Serum progesterone; 1,260 mg (N = 6), Day 28
  Progesterone Changes during cycle 1, Percent (%): 35%
Serum progesterone; 1,260 mg (N = 6), Day 56
  Progesterone Changes during cycle 1, Percent (%): 0%
Serum progesterone; 1,260 mg (N = 6), Day 84
  Progesterone Changes during cycle 1, Percent (%): 0%
Serum progesterone; 1,800 mg (N = 8), Day 14
  Progesterone Changes during cycle 1, Percent (%): 165%
Serum progesterone; 1,800 mg (N = 8), Day 28
  Progesterone Changes during cycle 1, Percent (%): 86%
Serum progesterone; 1,800 mg (N = 8), Day 56
  Progesterone Changes during cycle 1, Percent (%): 12%
Serum progesterone; 1,800 mg (N = 8), Day 84
  Progesterone Changes during cycle 1, Percent (%): 13%
Serum progesterone; Cohort 1, 180 mg i.m., Study Day 1 (baseline)
  Serum Progesterone (% CFB): 0%
Serum progesterone; Cohort 1, 180 mg i.m., Study Day 14
  Serum Progesterone (% CFB): 0%
Serum progesterone; Cohort 1, 180 mg i.m., Study Day 28
  Serum Progesterone (% CFB): 8%
Serum progesterone; Cohort 1, 180 mg i.m., Study Day 56
  Serum Progesterone (% CFB): 0%
Serum progesterone; Cohort 1, 180 mg i.m., Study Day 70
  Serum Progesterone (% CFB): 0%
Serum progesterone; Cohort 2, 360 mg i.m., Study Day 1 (baseline)
  Serum Progesterone (% CFB): 0%
Serum progesterone; Cohort 2, 360 mg i.m., Study Day 14
  Serum Progesterone (% CFB): 37%
Serum progesterone; Cohort 2, 360 mg i.m., Study Day 28
  Serum Progesterone (% CFB): 8%
Serum progesterone; Cohort 2, 360 mg i.m., Study Day 56
  Serum Progesterone (% CFB): 0%
Serum progesterone; Cohort 2, 360 mg i.m., Study Day 84
  Serum Progesterone (% CFB): 0%
Serum progesterone; Cohort 2, 360 mg i.m., Study Day 168
  Serum Progesterone (% CFB): 0%
Serum progesterone; Cohort 2, 360 mg i.m., Study Day 252
  Serum Progesterone (% CFB): 0%
Serum progesterone; Cohort 3, 720 mg i.m., Study Day 1 (baseline)
  Serum Progesterone (% CFB): 0%
Serum progesterone; Cohort 3, 720 mg i.m., Study Day 14
  Serum Progesterone (% CFB): −1%
Serum progesterone; Cohort 3, 720 mg i.m., Study Day 28
  Serum Progesterone (% CFB): −2%
Serum progesterone; Cohort 3, 720 mg i.m., Study Day 56
  Serum Progesterone (% CFB): 0%
Serum progesterone; Cohort 3, 720 mg i.m., Study Day 84
  Serum Progesterone (% CFB): 0%
Serum progesterone; Cohort 3, 720 mg i.m., Study Day 168
  Serum Progesterone (% CFB): 6%
Serum progesterone; Cohort 3, 720 mg i.m., Study Day 224
  Serum Progesterone (% CFB): 0%
Serum progesterone; Cohort 3, 720 mg i.m., Study Day 252
  Serum Progesterone (% CFB): 0%
Serum progesterone; Cohort 4, 1260 mg i.m., Study Day 1 (baseline)
  Serum Progesterone (% CFB): 0%
Serum progesterone; Cohort 4, 1260 mg i.m., Study Day 14
  Serum Progesterone (% CFB): 20%
Serum progesterone; Cohort 4, 1260 mg i.m., Study Day 28
  Serum Progesterone (% CFB): 35%
Serum progesterone; Cohort 4, 1260 mg i.m., Study Day 42
  Serum Progesterone (% CFB): 0%
Serum progesterone; Cohort 4, 1260 mg i.m., Study Day 56
  Serum Progesterone (% CFB): 0%
Serum progesterone; Cohort 4, 1260 mg i.m., Study Day 70
  Serum Progesterone (% CFB): 22%
Serum progesterone; Cohort 4, 1260 mg i.m., Study Day 84
  Serum Progesterone (% CFB): 0%
Serum progesterone; Cohort 4, 1260 mg i.m., Study Day 112
  Serum Progesterone (% CFB): 6%
Serum progesterone; Cohort 4, 1260 mg i.m., Study Day 140
  Serum Progesterone (% CFB): 0%
Serum progesterone; Cohort 4, 1260 mg i.m., Study Day 168
  Serum Progesterone (% CFB): 1%
Serum progesterone; Cohort 4, 1260 mg i.m., Study Day 224
  Serum Progesterone (% CFB): 0%
Serum progesterone; Cohort 4, 1260 mg i.m., Study Day 252
  Serum Progesterone (% CFB): 0%
Serum progesterone; Cohort 5, 1800 mg i.m., Study Day 1 (baseline)
  Serum Progesterone (% CFB): 0%
Serum progesterone; Cohort 5, 1800 mg i.m., Study Day 14
  Serum Progesterone (% CFB): 165%
Serum progesterone; Cohort 5, 1800 mg i.m., Study Day 28
  Serum Progesterone (% CFB): 86%
Serum progesterone; Cohort 5, 1800 mg i.m., Study Day 42
  Serum Progesterone (% CFB): 0%
Serum progesterone; Cohort 5, 1800 mg i.m., Study Day 56
  Serum Progesterone (% CFB): 12%
Serum progesterone; Cohort 5, 1800 mg i.m., Study Day 70
  Serum Progesterone (% CFB): 0%
Serum progesterone; Cohort 5, 1800 mg i.m., Study Day 84
  Serum Progesterone (% CFB): 8%
Serum progesterone; Cohort 5, 1800 mg i.m., Study Day 140
  Serum Progesterone (% CFB): 0%
Serum progesterone; Cohort 5, 1800 mg i.m., Study Day 168
  Serum Progesterone (% CFB): −7%
Serum progesterone; Cohort 5, 1800 mg i.m., Study Day 196
  Serum Progesterone (% CFB): 52%
Serum progesterone; Cohort 5, 1800 mg i.m., Study Day 224
  Serum Progesterone (% CFB): −7%
Serum progesterone; Cohort 5, 1800 mg i.m., Study Day 252
  Serum Progesterone (% CFB): 0%
Serum progesterone; Patient 1, cohort 1, 180 mg, FIG. 5
  progesterone change from baseline: no progesterone increase from baseline
Serum progesterone; Patient 2, cohort 2, 360 mg, FIG. 6
  transient up stream steroid (progesterone) increase from baseline: returned to baseline
Serum progesterone; all cohorts
  increases of progesterone levels during the second cycle: no significant increases
Serum progesterone; all cohorts (180-1800 mg)
  progesterone changes from baseline: not significant
Serum progesterone; cohort 5 (1800 mg), after first administration
  time at which progesterone level returned to baseline: ~6 week
Serum progesterone; cohorts 1-3 (180, 360, 720 mg)
  maximum serum progesterone level observed: 2.5 nM
Serum progesterone; patient 02-1403, Cohort 4, 1260 mg, mCRPC, Visit C4D28, assay LLOQ = 1.59 nM
  Progesterone at Visit Day (nM): <LLOQ
Serum progesterone; patient 02-1405, Cohort 4, 1260 mg, mCRPC, Visit C1D56, assay LLOQ = 1.59 nM
  Progesterone at Visit Day (nM): <LLOQ
Serum progesterone; patient 02-1504, Cohort 5, 1800 mg, mCRPC, Visit C1D28, assay LLOQ = 1.59 nM
  Progesterone at Visit Day (nM): <LLOQ
Serum progesterone; patient 04-1406, Cohort 4, 1260 mg, mCSPC, Visit C1D56, average of Day 28 and Day 70 values
  Progesterone at Visit Day (nM): 2.90† nM
Serum progesterone; patient 04-1503, Cohort 5, 1800 mg, mCSPC, Visit C1D84, assay LLOQ = 1.59 nM
  Progesterone at Visit Day: 2.54 nM
Serum progesterone; patient 04-1506, Cohort 5, 1800 mg, mCRPC, Visit C1D28, assay LLOQ = 1.59 nM
  Progesterone at Visit Day (nM): <LLOQ
Serum progesterone; patient 06-1401, Cohort 4, 1260 mg, mCRPC, Visit C3D84, assay LLOQ = 1.59 nM
  Progesterone at Visit Day (nM): <LLOQ
Serum progesterone; patient 06-1402, Cohort 4, 1260 mg, mCRPC, Visit C4D28, assay LLOQ = 1.59 nM
  Progesterone at Visit Day (nM): <LLOQ
Serum progesterone; patient 06-1404, Cohort 4, 1260 mg, mCSPC, Visit C2D84, assay LLOQ = 1.59 nM
  Progesterone at Visit Day (nM): <LLOQ
Serum progesterone; patient 06-1501, Cohort 5, 1800 mg, mCRPC, Visit C1D84, assay LLOQ = 1.59 nM
  Progesterone at Visit Day (nM): <LLOQ
Serum progesterone; patient 06-1502, Cohort 5, 1800 mg, mCSPC, Visit C2D84, assay LLOQ = 1.59 nM
  Progesterone at Visit Day (nM): <LLOQ
Serum corticosterone; 720 mg (N = 4), Day 14
  Corticosterone Changes during cycle 1, Percent (%): 48%
Serum corticosterone; 720 mg (N = 4), Day 28
  Corticosterone Changes during cycle 1, Percent (%): 27%
Serum corticosterone; 720 mg (N = 4), Day 56
  Corticosterone Changes during cycle 1, Percent (%): 9%
Serum corticosterone; 720 mg (N = 4), Day 84
  Corticosterone Changes during cycle 1, Percent (%): −33%
Serum corticosterone; 1,260 mg (N = 6), Day 14
  Corticosterone Changes during cycle 1, Percent (%): 184%
Serum corticosterone; 1,260 mg (N = 6), Day 28
  Corticosterone Changes during cycle 1, Percent (%): 490%
Serum corticosterone; 1,260 mg (N = 6), Day 56
  Corticosterone Changes during cycle 1, Percent (%): 19%
Serum corticosterone; 1,260 mg (N = 6), Day 84
  Corticosterone Changes during cycle 1, Percent (%): 32%
Serum corticosterone; 1,800 mg (N = 8), Day 14
  Corticosterone Changes during cycle 1, Percent (%): 455%
Serum corticosterone; 1,800 mg (N = 8), Day 28
  Corticosterone Changes during cycle 1, Percent (%): 259%
Serum corticosterone; 1,800 mg (N = 8), Day 56
  Corticosterone Changes during cycle 1, Percent (%): 54%
Serum corticosterone; 1,800 mg (N = 8), Day 84
  Corticosterone Changes during cycle 1, Percent (%): 109%

From patent US20250186463A1, “ABIRATERONE DECANOATE PRODRUGS AND USE IN THERAPY” (PROPELLA THERAPEUTICS, INC., priority 2022, published 2025)
